Experimental data from US20260234183A1, “SOLID STATE FORMS OF FOSGONIMETON AND SALTS THEREOF” (ASSIA CHEMICAL INDUSTRIES LTD., priority 2023, published 2026).
Entries after “also recorded” stand apart in the source; their conditions may differ. Where a name gives a salt, the structure may show the parent alone. Square brackets hold non-standard residues; d marks the D form. Peptide text beside a SMILES is read from it. * marks the point of attachment. pY = N[C@@H](Cc1ccc(OP(=O)(O)O)cc1)C(=O)O; Hexanoyl = CCCCCC(=O)*; Ahx = NCCCCCC(=O)O

Experiments:
Assay type in all cases: physicochemical
[1] = Heating stress test, XRPD analysis; conditions: 100° C./60 minutes
Procedure: (§1) Sample is applied directly on a silicon plate holder. The X-ray powder diffraction pattern was measured with Philips X′Pert PRO X-ray powder diffractometer, equipped with Cu irradiation source=1.54184 Å (Ångström), X'Celerator (2.022° 2θ) detector. Scanning parameters: angle range: 3-40 deg., step size 0.0167, time per step 37 s, continuous scan.
A sample of Fosgonimeton mono sodium salt form N2 was subjected to heating to 100° C. for 60 minutes.
A sample of Fosgonimeton mono sodium salt form N5 was subjected to heating to 100° C. for 60 minutes.
A sample of Fosgonimeton mono potassium salt form K1 was subjected to heating to 100° C. for 60 minutes.
A sample of Fosgonimeton form 1 was subjected to heating to 100° C. for 60 minutes.

[2] = Pressure stress test (Specac Hydraulic Press), XRPD analysis; conditions: 2 tons/2 minutes
Procedure: as §1
A sample of Fosgonimeton mono sodium salt form N2 was subjected to a pressure of 2 ton (Specac Hydraulic Press, set to 2 tons).
A sample of Fosgonimeton mono sodium salt form N5 was subjected to a pressure of 2 ton (Specac Hydraulic Press, set to 2 tons).
A sample of Fosgonimeton mono potassium salt form K1 was subjected to a pressure of 2 tons (Specac Hydraulic Press, set to 2 tons).
A sample of Fosgonimeton form 1 was subjected to a pressure of 2 tons (Specac Hydraulic Press, set to 2 tons).

[3] = Slurry experiments in solvent, XRPD analysis after filtration; conditions: for XRPD after slurry experiments: various solvents, ambient temperature, 1 or 7 days
Procedure: as §1
(§2) Samples of Fosgonimeton mono sodium salt form N2 were subjected to slurry and to sauna conditions in various conditions. In the slurry experiments, 50 mg of the sample is placed in a 2 mL glass vial with 0.5 mL of solvent. Obtained suspension is stirred at ambient temperature for 1 or 7 days. XRPD analysis is performed on crystalline material after filtration. In the sauna experiments, 50 mg of crystalline material is placed in an Eppendorf tube. 0.5 mL of solvent is placed in a sealed 10 mL glass vial, along with Eppendorf tube. Crystalline material is checked by XRPD analysis after 1 or 7 days.
as §2, with “N5” for “N2”
as §2, with “potassium” for “sodium”, “K1” for “N2”
as §2, with “Fosgonimeton” for “Fosgonimeton mono sodium salt”, “form 1” for “form N2”, “to Sauna” for “to sauna”

[4] = Sauna experiments (solvent vapour in sealed vial), XRPD analysis; conditions: for XRPD after sauna experiments: various solvents, 1 or 7 days
Procedure: as §1, §2
as §2, with “N5” for “N2”
as §2, with “potassium” for “sodium”, “K1” for “N2”
as §2, with “Fosgonimeton” for “Fosgonimeton mono sodium salt”, “form 1” for “form N2”, “to Sauna” for “to sauna”

| Structure (SMILES) | XRPD after Slurry ([3]; 2-Propanol/20-25° C./1 day) | XRPD after Slurry ([3]; Acetone/20-25° C./1 day) | XRPD after Slurry ([3]; Ethanol, 96%/20-25° C./1 day) | XRPD after Slurry ([3]; Ethyl acetate/20-25° C./1 day) | XRPD after Sauna ([4]; 2-Propanol/20-25° C./7 days) | XRPD after Sauna ([4]; Ethanol, 96%/20-25° C./7 days) | XRPD after Sauna ([4]; Ethyl acetate/20-25° C./7 days) | XRPD after sauna experiments [4] | XRPD after Heating ([1]; mono sodium salt) | XRPD after Pressure ([2]; mono sodium salt) | XRPD after Slurry ([3]; Acetone/20-25° C./7 days) | XRPD after slurry experiments [3] | XRPD after Sauna ([4]; Acetone/20-25° C./7 days) | XRPD after Sauna ([4]; Water/20-25° C./7 days) | XRPD after Slurry ([3]; Ethanol, 96%/20-25° C./7 days) | other results |
| --- | --- | --- | --- | --- | --- | --- | --- | --- | --- | --- | --- | --- | --- | --- | --- | --- |
| CCCCCC(=O)N[C@@H](Cc1ccc(OP(=O)(O)O)cc1)C(=O)N[C@H](C(=O)NCCCCCC(N)=O)[C@@H](C)CC [Fosgonimeton form 1, [4-[(2S)-3-[[(2S,3S)-1-[(6-amino-6-oxohexyl)amino]-3-methyl-1-oxopentan-2-yl]amino]-2-(hexanoylamino)-3-oxopropyl]phenyl]dihydrogen phosphate] (Hexanoyl-[pY]-Ile-[Ahx]-NH2) | No polymorphic change | No polymorphic change | No polymorphic change | No polymorphic change |  |  |  |  |  |  |  |  |  |  |  | XRPD after Heating [1]: no polymorphic conversion; also recorded: No polymorphic change; XRPD after Pressure [2]: no polymorphic conversion; also recorded: No polymorphic change |
| CCCCCC(=O)N[C@@H](Cc1ccc(OP(=O)(O)O)cc1)C(=O)N[C@H](C(=O)NCCCCCC(N)=O)[C@@H](C)CC [Fosgonimeton mono sodium salt form N5, Fosgonimeton mono sodium salt] (Hexanoyl-[pY]-Ile-[Ahx]-NH2) | No polymorphic change |  |  | No polymorphic change | No polymorphic change | No polymorphic change | No polymorphic change | no change in the starting material | no polymorphic conversion | no polymorphic conversion; also recorded: No polymorphic change | No polymorphic change | no change in the starting material |  |  |  |  |
| CCCCCC(=O)N[C@@H](Cc1ccc(OP(=O)(O)O)cc1)C(=O)N[C@H](C(=O)NCCCCCC(N)=O)[C@@H](C)CC [Fosgonimeton mono sodium salt form N2, Fosgonimeton mono sodium salt] (Hexanoyl-[pY]-Ile-[Ahx]-NH2) | No polymorphic change | No polymorphic change | No polymorphic change | No polymorphic change | No polymorphic change | No polymorphic change | No polymorphic change | no change in the starting material | no polymorphic conversion; also recorded: No polymorphic change | no polymorphic conversion; also recorded: No polymorphic change | No polymorphic change | no change in the starting material | No polymorphic change | No polymorphic change | No polymorphic change | XRPD after Slurry ([3]; Water/20-25° C./7 days): No polymorphic change |
| CCCCCC(=O)N[C@@H](Cc1ccc(OP(=O)(O)O)cc1)C(=O)N[C@H](C(=O)NCCCCCC(N)=O)[C@@H](C)CC [Fosgonimeton mono potassium salt form K1, Fosgonimeton mono potassium salt] (Hexanoyl-[pY]-Ile-[Ahx]-NH2) |  |  |  |  | No polymorphic change | No polymorphic change | No polymorphic change | no change in the starting material |  |  | No polymorphic change | no change in the starting material | No polymorphic change | No polymorphic change | No polymorphic change | XRPD after Heating ([1]; mono potassium salt): no polymorphic conversion; also recorded: No polymorphic change; XRPD after Pressure ([2]; mono potassium salt): no polymorphic conversion; also recorded: No polymorphic change; XRPD after Slurry ([3]; 2-Propanol/20-25° C./7 days): No polymorphic change; XRPD after Slurry ([3]; Ethyl acetate/20-25° C./7 days): No polymorphic change |
